18 molecules from patent US20250214991A1 (Oncopia Therapeutics, Inc. d/b/a/ SK Life Science Labs, priority 2022, published 2025) can be followed below.

In one test the target is IKZF2 (Homo sapiens (Human), UniProt Q96SW2+Q9UKS7). The test can be described thus: In vitro IKZF2 HiBit Assay (HEK293T Flp-in-HiBiT cells). It is filed as cell-based. As to conditions: HEK293T Flp-in-HiBiT cells, 6 hrs incubation; for DC50: read-out: IKZF2 HiBit DC50; for Dmax: HEK-293T, read-out: IKZF2 HiBit Dmax (%). The method in brief:
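HEK293T Flp-in cells carrying an endogenous N-terminal HiBiT tag on IKZF2 were exposed to compound for 6 h at 0.1% DMSO. The dilution series was 11 doses at 3-fold, diluted from 1 mM. Nano-Glo HiBiT lytic luminescence, normalized to DMSO, gave DC50 for 50% degradation and Dmax across the concentration range, both reported in letter bins.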
(With HiBiT, luminescence reflects the tagged protein that the partner subunit can reach.)

The target of the next test is IKZF1 (Homo sapiens (Human), UniProt Q13422+Q96SW2). In words: In vitro IKZF1 HiBit Assay (HEK293T Flp-in-HiBiT-IKZF1 stable cell line). It is filed as cell-based. To be noted: HEK293T Flp-in-HiBiT-IKZF1 stable cell line, 6 hrs incubation; for DC50: read-out: IKZF1 HiBit DC50; for Dmax: HEK-293T, read-out: IKZF1 HiBit Dmax (%). The method in brief: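 HEK293T Flp-in cells carrying N-terminal HiBiT-tagged IKZF1 were exposed to compound (0.1% DMSO) for 6 h at 3000 cells/well. HiBiT luminescence was read after lytic LgBiT detection. DC50 and Dmax were taken from DMSO-normalized dose-response curves.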

The target in another test is CRBN/DDB1 (Homo sapiens (Human), UniProt Q96SW2). In words: IC50 measurements for binding to CRBN/DDB1 (HTRF). As to conditions: His tagged CRBN+DDB, Cy5-labeled Thalidomide probe, one hour. The method in brief: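 HTRF competition binding with 2 nM His-tagged CRBN-DDB1 complex, 60 nM Cy5-thalidomide probe and 0.4 nM anti-His Tb cryptate in 50 mM HEPES pH 7.5, 1 mM TCEP, 0.01% Brij-35, 50 mM NaCl, 0.1% BSA. Read after 1 h at room temperature; IC50 from four-parameter dose-response fit.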
On the technique in general: TR-FRET usually uses a lanthanide donor and a delayed reading to cut background.

Chain of IKZF2 (Q9UKS7 whole entry): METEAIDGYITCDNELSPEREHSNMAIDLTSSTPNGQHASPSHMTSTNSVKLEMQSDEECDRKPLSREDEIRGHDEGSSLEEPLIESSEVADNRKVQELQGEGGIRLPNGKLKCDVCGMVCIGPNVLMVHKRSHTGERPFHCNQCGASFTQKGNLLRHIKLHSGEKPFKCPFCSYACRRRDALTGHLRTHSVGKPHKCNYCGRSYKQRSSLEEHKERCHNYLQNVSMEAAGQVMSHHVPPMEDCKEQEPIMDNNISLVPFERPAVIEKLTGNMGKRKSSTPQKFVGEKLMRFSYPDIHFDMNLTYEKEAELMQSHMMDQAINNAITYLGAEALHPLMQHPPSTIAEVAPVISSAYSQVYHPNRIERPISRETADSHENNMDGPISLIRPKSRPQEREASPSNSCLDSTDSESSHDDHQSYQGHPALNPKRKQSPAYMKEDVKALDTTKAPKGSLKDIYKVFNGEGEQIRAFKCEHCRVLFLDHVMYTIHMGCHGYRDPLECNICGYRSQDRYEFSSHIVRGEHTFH
Chain of IKZF2 (Q96SW2 whole entry): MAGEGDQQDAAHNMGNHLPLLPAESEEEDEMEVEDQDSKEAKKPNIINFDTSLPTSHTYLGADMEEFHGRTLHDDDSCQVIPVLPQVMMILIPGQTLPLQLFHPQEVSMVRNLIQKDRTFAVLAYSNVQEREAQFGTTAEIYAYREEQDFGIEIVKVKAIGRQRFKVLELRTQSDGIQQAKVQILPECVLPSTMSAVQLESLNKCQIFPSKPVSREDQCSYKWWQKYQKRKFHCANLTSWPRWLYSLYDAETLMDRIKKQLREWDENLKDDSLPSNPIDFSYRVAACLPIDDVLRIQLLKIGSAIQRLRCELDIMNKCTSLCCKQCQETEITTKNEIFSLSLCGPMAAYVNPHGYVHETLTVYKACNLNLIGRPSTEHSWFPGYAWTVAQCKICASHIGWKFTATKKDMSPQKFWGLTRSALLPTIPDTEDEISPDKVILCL
Chain of IKZF2 (Q16531 2-1140 partner): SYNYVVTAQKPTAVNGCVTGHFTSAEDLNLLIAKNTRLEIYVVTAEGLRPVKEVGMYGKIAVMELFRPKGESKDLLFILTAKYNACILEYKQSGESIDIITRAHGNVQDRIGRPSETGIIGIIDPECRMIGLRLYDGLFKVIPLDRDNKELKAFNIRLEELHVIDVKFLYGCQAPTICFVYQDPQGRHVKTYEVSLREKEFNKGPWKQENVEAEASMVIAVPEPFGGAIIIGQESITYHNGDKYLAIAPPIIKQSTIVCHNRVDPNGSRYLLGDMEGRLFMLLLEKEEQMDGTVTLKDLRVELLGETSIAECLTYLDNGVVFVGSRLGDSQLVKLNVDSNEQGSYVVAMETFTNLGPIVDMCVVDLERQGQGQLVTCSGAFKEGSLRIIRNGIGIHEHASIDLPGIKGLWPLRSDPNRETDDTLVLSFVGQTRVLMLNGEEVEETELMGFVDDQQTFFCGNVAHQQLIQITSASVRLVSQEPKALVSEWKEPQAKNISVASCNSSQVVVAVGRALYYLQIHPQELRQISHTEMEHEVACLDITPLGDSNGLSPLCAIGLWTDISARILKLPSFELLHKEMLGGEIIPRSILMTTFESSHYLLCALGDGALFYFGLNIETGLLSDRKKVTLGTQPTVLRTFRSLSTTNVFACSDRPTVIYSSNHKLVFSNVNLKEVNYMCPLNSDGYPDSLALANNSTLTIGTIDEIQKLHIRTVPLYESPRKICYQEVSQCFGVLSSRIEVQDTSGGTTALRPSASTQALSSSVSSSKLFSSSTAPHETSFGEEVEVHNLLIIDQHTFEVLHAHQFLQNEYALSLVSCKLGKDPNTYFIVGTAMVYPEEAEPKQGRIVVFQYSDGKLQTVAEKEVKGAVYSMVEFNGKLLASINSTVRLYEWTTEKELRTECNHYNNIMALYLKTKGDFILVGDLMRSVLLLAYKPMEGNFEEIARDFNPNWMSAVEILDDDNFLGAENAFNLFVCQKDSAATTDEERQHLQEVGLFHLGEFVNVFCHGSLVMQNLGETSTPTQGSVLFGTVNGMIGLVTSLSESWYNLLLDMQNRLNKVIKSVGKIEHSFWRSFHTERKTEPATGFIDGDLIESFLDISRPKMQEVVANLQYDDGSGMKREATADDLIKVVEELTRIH
Chain of IKZF1 (Q13422 whole entry): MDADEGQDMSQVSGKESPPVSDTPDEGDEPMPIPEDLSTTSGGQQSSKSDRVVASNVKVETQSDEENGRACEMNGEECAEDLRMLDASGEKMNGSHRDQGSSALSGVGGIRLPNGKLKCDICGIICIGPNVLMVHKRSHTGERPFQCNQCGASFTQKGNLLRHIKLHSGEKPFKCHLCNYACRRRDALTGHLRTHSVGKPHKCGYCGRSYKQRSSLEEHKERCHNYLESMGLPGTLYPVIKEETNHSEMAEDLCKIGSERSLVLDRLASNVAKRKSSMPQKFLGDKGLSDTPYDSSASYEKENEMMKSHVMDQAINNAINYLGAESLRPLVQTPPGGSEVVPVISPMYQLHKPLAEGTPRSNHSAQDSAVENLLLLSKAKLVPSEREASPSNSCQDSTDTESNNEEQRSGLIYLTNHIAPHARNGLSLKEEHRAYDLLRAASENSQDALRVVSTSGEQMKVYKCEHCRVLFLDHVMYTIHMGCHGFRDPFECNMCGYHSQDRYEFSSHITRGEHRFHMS
Chain of IKZF1 (Q96SW2 whole entry): as the sequence (Q96SW2 whole entry) above
Chain of IKZF1 (Q16531 2-1140 partner): as the sequence (Q16531 2-1140 partner) above
Chain of CRBN/DDB1 (Q96SW2 whole entry, species assumed): as the sequence (Q96SW2 whole entry) above
Chain of CRBN/DDB1 (Q16531 whole entry partner, species assumed): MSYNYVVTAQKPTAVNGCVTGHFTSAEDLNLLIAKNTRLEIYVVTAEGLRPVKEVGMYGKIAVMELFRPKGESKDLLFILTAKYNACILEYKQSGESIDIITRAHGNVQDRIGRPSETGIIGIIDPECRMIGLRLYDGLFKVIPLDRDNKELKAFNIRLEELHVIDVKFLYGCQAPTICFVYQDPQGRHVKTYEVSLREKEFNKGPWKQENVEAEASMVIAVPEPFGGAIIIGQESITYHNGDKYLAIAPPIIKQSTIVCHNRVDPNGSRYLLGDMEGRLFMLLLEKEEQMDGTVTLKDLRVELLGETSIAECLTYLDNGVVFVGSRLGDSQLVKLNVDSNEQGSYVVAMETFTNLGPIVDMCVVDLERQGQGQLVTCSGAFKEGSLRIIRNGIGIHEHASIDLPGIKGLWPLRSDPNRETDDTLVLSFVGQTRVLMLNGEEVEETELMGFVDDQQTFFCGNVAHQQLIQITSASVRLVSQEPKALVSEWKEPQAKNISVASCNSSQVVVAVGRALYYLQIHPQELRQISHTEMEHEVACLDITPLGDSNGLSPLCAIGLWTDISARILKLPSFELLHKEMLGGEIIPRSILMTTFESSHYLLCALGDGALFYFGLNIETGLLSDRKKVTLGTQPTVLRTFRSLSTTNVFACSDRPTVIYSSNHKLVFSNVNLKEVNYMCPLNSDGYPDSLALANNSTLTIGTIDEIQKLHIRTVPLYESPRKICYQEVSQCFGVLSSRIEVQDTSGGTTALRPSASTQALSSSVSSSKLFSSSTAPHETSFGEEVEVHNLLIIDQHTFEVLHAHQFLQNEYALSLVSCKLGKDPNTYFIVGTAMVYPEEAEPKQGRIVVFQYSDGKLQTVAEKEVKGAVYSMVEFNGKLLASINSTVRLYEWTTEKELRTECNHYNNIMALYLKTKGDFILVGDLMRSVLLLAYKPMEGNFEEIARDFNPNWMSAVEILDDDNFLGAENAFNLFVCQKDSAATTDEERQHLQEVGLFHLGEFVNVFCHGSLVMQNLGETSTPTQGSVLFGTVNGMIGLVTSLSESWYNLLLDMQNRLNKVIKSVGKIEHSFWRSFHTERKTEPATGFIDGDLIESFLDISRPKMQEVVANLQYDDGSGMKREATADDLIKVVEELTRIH

As usually defined, the IC50 is the concentration needed to halve the response being measured. Lower therefore signals inhibition by little substance. With `O=C1CCC(N2Cc3cc(-c4cc(CN5CCC(O)CC5)c5cc[nH]c5n4)ccc3C2=O)C(=O)N1` (stereo not drawn) [Example 125, 3-(5-(4-((4-hydroxypiperidin-1-yl)methyl)-1H-pyrrolo[2,3-b]pyridin-6-yl)-1-oxoisoindolin-2-yl) piperidine-2,6-dione], on IKZF2, the DC50 was 10 to 100 nM and the Dmax is over 80%. On IKZF1, the DC50 was 100 to 1000 nM and the Dmax lay within 20 to 40%. In addition, the IC50 at CRBN/DDB1 was in the range of 100 to 500 nM.
The corresponding values for `O=C1CCC(N2Cc3c(ccc(-c4cc(CN5CCCC5)c5cc[nH]c5n4)c3F)C2=O)C(=O)N1` (stereo not drawn) [Example 126, 3-(4-fluoro-1-oxo-5-(4-(pyrrolidin-1-ylmethyl)-1H-pyrrolo[2,3-b]pyridin-6-yl)isoindolin-2-yl) piperidine-2,6-dione] are under 1 nM, over 80%, 1 to 10 nM, 40 to 60% and 100 to 500 nM.
For `O=C1CCC(N2Cc3cc(-c4cc(CN5CCC(F)C5)c5cc[nH]c5n4)ccc3C2=O)C(=O)N1` (stereo not drawn) [Example 127, 3-(5-(4-((3-fluoropyrrolidin-1-yl)methyl)-1H-pyrrolo[2,3-b]pyridin-6-yl)-1-oxoisoindolin-2-yl) piperidine-2,6-dione] the same measures were 1 to 10 nM, over 80%, 100 to 1000 nM, 20 to 40% and 100 to 500 nM.
For `O=C1CCC(N2Cc3cc(-c4cc(CN5CCCC5)c5ccn(CCOCc6ccccc6)c5n4)ccc3C2=O)C(=O)N1` (stereo not drawn) [Example 130, 3-(5-(1-(2-(benzyloxy)ethyl)-4-(pyrrolidin-1-ylmethyl)-1H-pyrrolo[2,3-b]pyridin-6-yl)-1-oxoisoindolin-2-yl) piperidine-2,6-dione] the same measures were 1 to 10 nM, 40 to 60%, over 10000 nM, under 20% and 100 to 500 nM.
For `O=C1CCC(N2Cc3cc(-c4cc(CN5CCCC5)c5ccn(CCO)c5n4)ccc3C2=O)C(=O)N1` (stereo not drawn) [Example 131, 3-(5-(1-(2-hydroxyethyl)-4-(pyrrolidin-1-ylmethyl)-1H-pyrrolo[2,3-b]pyridin-6-yl)-1-oxoisoindolin-2-yl) piperidine-2,6-dione], at IKZF2, the DC50 is 10 to 100 nM and the Dmax is 60 to 80%. Further, at IKZF1, the DC50 is over 10000 nM and the Dmax is under 20%. Moreover, the IC50 on CRBN/DDB1 was 1000 to 5000 nM.
Regarding `Cc1cc(-c2ccc3c(c2)CN(C2CCC(=O)NC2=O)C3=O)nc2c1CCN2CCO` (stereo not drawn) [Example 132, 3-(5-(1-(2-hydroxyethyl)-4-methyl-2,3-dihydro-1H-pyrrolo[2,3-b]pyridin-6-yl)-1-oxoisoindolin-2-yl) piperidine-2,6-dione], on IKZF2, the DC50 was in the range of 10 to 100 nM and the Dmax was 40 to 60%. Moreover, on IKZF1, the DC50 was over 10000 nM and the Dmax is under 20%. For the same molecule, the IC50 at CRBN/DDB1 lay in the range of 5000 to 10000 nM.
The corresponding values for `N#CCn1ccc2c(CN3CCCC3)cc(-c3ccc4c(c3)CN(C3CCC(=O)NC3=O)C4=O)nc21` (stereo not drawn) [Example 133, 2-(6-(2-(2,6-dioxopiperidin-3-yl)-1-oxoisoindolin-5-yl)-4-(pyrrolidin-1-ylmethyl)-1H-pyrrolo[2,3-b]pyridin-1-yl) acetonitrile] are 1 to 10 nM, 60 to 80%, over 10000 nM, under 20% and 100 to 500 nM.
`O=C1CCC(N2Cc3cc(-c4cc(CN5CCCC5)c5ccn(-c6ccccc6)c5n4)ccc3C2=O)C(=O)N1` (stereo not drawn) [Example 139, 3-(1-oxo-5-(1-phenyl-4-(pyrrolidin-1-ylmethyl)-1H-pyrrolo[2,3-b]pyridin-6-yl)isoindolin-2-yl) piperidine-2,6-dione]: at IKZF2, the DC50 lay within 1 to 10 nM and the Dmax lay within 60 to 80%. At IKZF1, the DC50 is 10 to 100 nM and the Dmax was 20 to 40%. On CRBN/DDB1, this molecule had an IC50 of 500 to 1000 nM.
For `CC(C)Cn1ccc2c(CN3CCCC3)cc(-c3ccc4c(c3)CN(C3CCC(=O)NC3=O)C4=O)nc21` (stereo not drawn) [Example 140, 3-(5-(1-isobutyl-4-(pyrrolidin-1-ylmethyl)-1H-pyrrolo[2,3-b]pyridin-6-yl)-1-oxoisoindolin-2-yl) piperidine-2,6-dione] the same measures were under 1 nM, 20 to 40%, over 10000 nM, under 20% and 100 to 500 nM.
For `O=C1CCC(N2Cc3cc(-c4cc(CN5CCC(F)C5)c5ccn(C6CC6)c5n4)ccc3C2=O)C(=O)N1` (stereo not drawn) [Example 141, 3-(5-(1-cyclopropyl-4-((3-fluoropyrrolidin-1-yl)methyl)-1H-pyrrolo[2,3-b]pyridin-6-yl)-1-oxoisoindolin-2-yl) piperidine-2,6-dione], on IKZF2, the DC50 is 1 to 10 nM and the Dmax was over 80%. For the same molecule, at IKZF1, the DC50 was over 10000 nM and the Dmax was under 20%. In addition, at CRBN/DDB1, the IC50 lay within 1000 to 5000 nM.
In the case of `O=C1CCC(N2Cc3cc(-c4cc(CN5CCC(O)C5)c5ccn(C6CC6)c5n4)ccc3C2=O)C(=O)N1` (stereo not drawn) [Example 142, 3-(5-(1-cyclopropyl-4-((3-hydroxypyrrolidin-1-yl)methyl)-1H-pyrrolo[2,3-b]pyridin-6-yl)-1-oxoisoindolin-2-yl) piperidine-2,6-dione], the DC50 was 1 to 10 nM on IKZF2 and over 10000 nM at IKZF1. Further, the Dmax at IKZF2 is over 80%; on IKZF1 it was under 20%. Also, at CRBN/DDB1, the IC50 was 500 to 1000 nM.
The corresponding values for `O=C1CCC(N2Cc3cc(-c4cc(CN5CC(F)C5)c5ccn(C6CC6)c5n4)ccc3C2=O)C(=O)N1` (stereo not drawn) [Example 143, 3-(5-(1-cyclopropyl-4-((3-fluoroazetidin-1-yl)methyl)-1H-pyrrolo[2,3-b]pyridin-6-yl)-1-oxoisoindolin-2-yl) piperidine-2,6-dione] are 1 to 10 nM, over 10000 nM, over 80%, under 20% and 1000 to 5000 nM.
For `O=C1CCC(N2Cc3cc(-c4cc(CN5CCC(CO)CC5)c5ccn(C6CC6)c5n4)ccc3C2=O)C(=O)N1` (stereo not drawn) [Example 144, 3-(5-(1-cyclopropyl-4-((4-(hydroxymethyl)piperidin-1-yl)methyl)-1H-pyrrolo[2,3-b]pyridin-6-yl)-1-oxoisoindolin-2-yl) piperidine-2,6-dione] the same measures were 1 to 10 nM, 10 to 100 nM, over 80%, 20 to 40% and 100 to 500 nM.
On to `O=C1CCC(N2Cc3cc(-c4cc(CN5CCCC5)c5nc[nH]c5n4)ccc3C2=O)C(=O)N1` (stereo not drawn) [Example 145, 3-(1-oxo-5-(7-(pyrrolidin-1-ylmethyl)-3H-imidazo[4,5-b]pyridin-5-yl)isoindolin-2-yl) piperidine-2,6-dione], for which the DC50 on IKZF2 is 100 to 1000 nM; on IKZF1 it was over 10000 nM. For the same molecule, the Dmax on IKZF2 and at IKZF1 was under 20% throughout. This molecule yielded an IC50 on CRBN/DDB1 of 1000 to 5000 nM.
With `CC(C)C1CCN(Cc2cc(-c3ccc4c(c3)CN(C3CCC(=O)NC3=O)C4=O)nc3[nH]ccc23)C1` (stereo not drawn) [Example 146], the DC50 on IKZF2 and on IKZF1 was 1 to 10 nM throughout. In addition, the Dmax at IKZF2 was over 80%; at IKZF1, 40 to 60%. This molecule registered an IC50 on CRBN/DDB1 of 100 to 500 nM.
As for `O=C1CCC(N2Cc3cc(-c4cc(CN5CCCC5)c5ccn(Cc6ccccc6)c5n4)ccc3C2=O)C(=O)N1` (stereo not drawn) [Example 147, 3-(5-(1-benzyl-4-(pyrrolidin-1-ylmethyl)-1H-pyrrolo[2,3-b]pyridin-6-yl)-1-oxoisoindolin-2-yl) piperidine-2,6-dione], the values for the DC50 on IKZF2 and on IKZF1 were 1 to 10 nM and over 10000 nM, respectively. Moreover, the Dmax is 40 to 60% at IKZF2 and under 20% at IKZF1. This molecule also had an IC50 at CRBN/DDB1 of 100 to 500 nM.
As for `CC#CCn1ccc2c(CN3CCCC3)cc(-c3ccc4c(c3)CN(C3CCC(=O)NC3=O)C4=O)nc21` (stereo not drawn) [Example 148, 3-(5-(1-(but-2-yn-1-yl)-4-(pyrrolidin-1-ylmethyl)-1H-pyrrolo[2,3-b]pyridin-6-yl)-1-oxoisoindolin-2-yl) piperidine-2,6-dione], on IKZF2, the DC50 fell in the range of 1 to 10 nM and the Dmax lay in the range of 60 to 80%. Besides, on IKZF1, the DC50 was over 10000 nM and the Dmax was under 20%. At CRBN/DDB1, this molecule yielded an IC50 of 100 to 500 nM.
In the case of `CN(C)C(=O)Cn1ccc2c(CN3CCCC3)cc(-c3ccc4c(c3)CN(C3CCC(=O)NC3=O)C4=O)nc21` (stereo not drawn) [Example 149, 2-(6-(2-(2,6-dioxopiperidin-3-yl)-1-oxoisoindolin-5-yl)-4-(pyrrolidin-1-ylmethyl)-1H-pyrrolo[2,3-b]pyridin-1-yl)-N,N-dimethylacetamide], the DC50 is 100 to 1000 nM at IKZF2 and over 10000 nM at IKZF1. In addition, the Dmax is 20 to 40% at IKZF2 and under 20% on IKZF1. At CRBN/DDB1, this molecule had an IC50 of 1000 to 5000 nM.
